Test results reported in patent US20250032490A1, “THERAPEUTIC REGIMENS FOR TREATMENT OF PAROXYSMAL NOCTURNAL HEMOGLOBINURIA” (Achillion Pharmaceuticals, Inc., priority 2017, published 2025).

B1: Eculizumab: monoclonal antibody complement inhibitor of the terminal component C5; only approved therapy for PNH (antibody, chains of the INN, looked up)
heavy: QVQLVQSGAEVKKPGASVKVSCKASGYIFSNYWIQWVRQAPGQGLEWMGEILPGSGSTEYTENFKDRVTMTRDTSTSTVYMELSSLRSEDTAVYYCARYFFGSSPNWYFDVWGQGTLVTVSSASTKGPSVFPLAPCSRSTSESTAALGCLVKDYFPEPVTVSWNSGALTSGVHTFPAVLQSSGLYSLSSVVTVPSSNFGTQTYTCNVDHKPSNTKVDKTVERKCCVECPPCPAPPVAGPSVFLFPPKPKDTLMISRTPEVTCVVVDVSQEDPEVQFNWYVDGVEVHNAKTKPREEQFNSTYRVVSVLTVLHQDWLNGKEYKCKVSNKGLPSSIEKTISKAKGQPREPQVYTLPPSQEEMTKNQVSLTCLVKGFYPSDIAVEWESNGQPENNYKTTPPVLDSDGSFFLYSRLTVDKSRWQEGNVFSCSVMHEALHNHYTQKSLSLSLG
light: DIQMTQSPSSLSASVGDRVTITCGASENIYGALNWYQQKPGKAPKLLIYGATNLADGVPSRFSGSGSGTDFTLTISSLQPEDFATYYCQNVLNTPLTFGQGTKVEIKRTVAAPSVFIFPPSDEQLKSGTASVVCLLNNFYPREAKVQWKVDNALQSGNSQESVTEQDSKDSTYSLSSTLTLSKADYEKHKVYACEVTHQGLSSPVTKSFNRGEC

Key:
[1] = test system: PNH erythrocytes; experiment: CAP-mediated hemolysis assay with PNH erythrocytes (subject A); type: cell-based, human; settings: for Inhibition (%) of CAP activity: Compound 1 0 μM
Protocol: Complement-preserved normal human serum (NHS) from an individual donor of ABO blood group type AB (NHS-AB) was purchase from BioreclamationIVT (Westbury, NY). Gelatin veronal buffer (GVB), pH 7.3, without Ca^++ and Mg^++ (GVB^0) and 100 mM MgCl2 +100 mM EGTA (MgEGTA) were obtained from Complement Technology Inc. (Tyler, TX).
GVB^0·MgEGTA was prepared by mixing GVB^0 and 100 mM MgEGTA in a 9:1 ratio. PNH erythrocytes were used within five days of blood collection; before assay cells were collected by centrifugation at 800×g and 4° C. for 3 minutes and resuspended in fresh cold GVB^0·MgEGTA to a density of 5×10^8 cells/mL.
50 μL of NHS-AB was added to each well. The plates were mixed and incubated at room temperature for 5 minutes. 24 μL of this NHS-AB with compound was then transferred to duplicate wells of V-bottom microtiter plates each containing 76 μL GVB0·MgEGTA. 20 μL PNH erythrocytes was then added to each well and the plates were sealed, mixed, and incubated at 37° C. for 30 minutes with an added shaking for 15 minutes. […] Following incubation, PNH cells were removed by centrifugation at 800×g and 4° C. for 3 minutes, 100 μL supernatant per well was transferred to flat-bottom clear microtiter plates, and A405 of the supernatant was measured in a Molecular Devices Spectramax Plus plate reader.
Combinatorial interactions were analyzed via two methods.
Inhibition was analyzed by the method of Prichard and Shipman (Prichard, M. N. and C. Shipman, Jr. A Three-Dimensional Model to Analyze Drug-Drug Interactions. Antiviral Research 1990, 14:181-205) Three-dimensional surface graphs of each experiment were generated and analyzed using an Excel spreadsheet program adapted from the MacSynergy II spreadsheet (University of Alabama, Birmingham, AL). The X-axis and Y-axis of each surface graph represent the concentrations of the two test compounds, and the Z-axis represents the difference between measured inhibition and a theoretically determined additive inhibition. For an additive relationship, the surface graph resembles a horizontal plane at Z=0, whereas positive surface peaks indicate greater inhibition than expected and therefore synergy, and negative surface peaks indicate less inhibition than expected and therefore antagonism.
Synergy and antagonism volumes were calculated separately as the summed volumes of peaks respectively above and below the Z=0 plane. Volumes were determined using 95% confidence limits to assure significance.
Inhibition was analyzed by the method of Chou and Talalay (Chou, T.-C. and P. Talalay. Analysis of Combined Drug Effects: A New Look at a Very Old Problem. Trends Pharmacol. Sci. 1983, 4:450-454; Chou, T. C. Theoretical basis, experimental design, and computerized simulation of synergism and antagonism in drug combination studies. Pharmacological Reviews 2006, 58:621-681). Analysis using the median-effect equation of Chou and Talalay was performed with CompuSyn software (ComboSyn, Inc, Paramus, NJ). […] Combination index (CI) values were determined at inhibition values of 50%, 75%, and 90%.

[2] = test system: C3 fragment deposition on rabbit erythrocytes; experiment: C3 fragment deposition on rabbit erythrocytes (flow cytometry); type: cell-based; settings: 20% C5-depleted normal human serum; read-out: IC50, inhibition of C3 fragment deposition on rabbit erythrocytes
Protocol: Rabbit erythrocytes, C5-depleted normal human serum (C5-Dpl NHS), gelatin veronal buffer (GVB) without Ca^++ and Mg (GVB^0), 100 mM MgCl2+100 mM EGTA (MgEGTA) were obtained from Complement Technology Inc. (Tyler, TX). GVB^0·MgEGTA was prepared by mixing GVB^0 and 100 mM MgEGTA in a 9:1 ratio. FITC-conjugated anti-C3c antibody (cat#ab4212) and Alexa Fluor® 647-conjugated anti human CD59 antibody (cat#: ab187769) were purchased from Abcam (Cambridge, MA).
Reactions were incubated at 37° C. for 15 minutes, the reactions were quenched by addition of EDTA at a final concentration of 20 mM. Cells were stained with a FITC-conjugated anti-C3c antibody at a dilution of 1:200 and C3 fragment deposition on the surface of rabbit erythrocytes was assessed by flow cytometry with BD Accuri C6 cytometer (BD Biosciences, San Jose, CA). Forward and side scatter parameters were used to gate intact erythrocytes. Controls included cells labeled with FITC-conjugated antibody isotype control. IC50 values from each experiment were determined by curve-fitting of experimental data (the % C3 fragment-positive cells at increasing concentrations of inhibitor) to the four-parameter sigmoidal dose-response equation using non-linear regression analysis (Prism Software, GraphPad, La Jolla, CA).

[3] = test system: C3 fragment deposition on artificial PNH cells; experiment: C3 fragment deposition on artificial PNH cells (flow cytometry); type: cell-based; settings: 32% acidified C5-depleted normal human serum; read-out: IC50, inhibition of C3 fragment deposition on artificial PNH cells
Protocol: C5-depleted normal human serum (C5-Dpl NHS), gelatin veronal buffer (GVB) without Ca^++ and Mg^++ (GVB^0), 100 mM MgCl2+100 mM EGTA (MgEGTA) were obtained from Complement Technology Inc. (Tyler, TX). GVB^0·MgEGTA was prepared by mixing GVB^0 and 100 mM MgEGTA in a 9:1 ratio. FITC-conjugated anti-C3c antibody (cat #ab4212) and Alexa Fluor® 647-conjugated anti human CD59 antibody (cat #:ab187769) were purchased from Abcam (Cambridge, MA). […] Ferrone, and F. Mercuriali, The Action of Two Sulfhydryl Compounds on Normal Human Red Cells. Relationship to Red Cells of Paroxysmal Nocturnal Hemoglobinuria. Blood, 1965. 25: p. 502-10). After AET treatment, artificial PNH erythrocytes were centrifuged, supernatant was aspirated and cells were thoroughly washed with phosphate buffered saline (PBS) 3 times followed by washing with GVB^0 buffer ([…]) for additional 3 times. […] C3 fragment deposition on the surface of the erythrocytes was assessed by flow cytometry with BD Accuri C6 cytometer (BD Biosciences, San Jose, CA). […] IC50 values from each experiment were determined by curve-fitting of experimental data (the % C3 fragment-positive cells at increasing concentrations of inhibitor) to the four-parameter sigmoidal dose-response equation using non-linear regression analysis (Prism Software, GraphPad, La Jolla, CA).

Molecule | Inhibition (%) of CAP activity ([1]; Experiment 2, Compstatin 0-300 μM) | Inhibition (%) of CAP activity ([1]; Experiment #1, Compstatin 0-300 μM) | inhibition at the high end of the test concentration ranges ([1]; single agent, PNH erythrocytes) | IC50 [2] | IC50 [3] | Inhibition (%) of CAP activity ([1]; Experiment 2, Eculizumab 0-400 μg/mL) | Inhibition (%) of CAP activity ([1]; Experiment #1, Eculizumab 0-400 μg/mL)
CC[C@H](C)[C@H](N)C(=O)N[C@H]1CSSC[C@@H](C(=O)N[C@H](C(N)=O)[C@@H](C)O)NC(=O)[C@H](CCCN=C(N)N)NC(=O)[C@H](Cc2cnc[nH]2)NC(=O)[C@H](Cc2cnc[nH]2)NC(=O)CNC(=O)[C@H](Cc2c[nH]c3ccccc23)NC(=O)[C@H](CC(=O)O)NC(=O)[C@H](CCC(N)=O)NC(=O)[C@H](C(C)C)NC(=O)[C@H](C(C)C)NC1=O [Compstatin, reference compound] | 0% | 0% | complete inhibition | 1400 nM | 2200 nM |  | 
B1 |  |  |  |  |  | 0% | 0%
